Laboratory results published in patent US20260027220A1, “EPHA2 BCL-XL INHIBITOR ANTIBODY-DRUG CONJUGATES AND METHODS OF USE THEREOF” (Novartis AG, priority 2022, published 2026).

Columns and labels:
Panc03.27 xenografts = assay: Panc03.27 xenograft efficacy, combination with gemcitabine (Table 15, FIG. 3); assay type: in vivo, mice; conditions: Gemcitabine 100 mg/kg IP q3dx3 alone
Experimental: (§1) EBC-1 cells were cultured at 37° C. (atmosphere of 5% CO2) in DMEM medium (Gibco 11965-084) supplemented with 10% FBS (HI-FBS #134K19, Tet-free). Panc03.27 cells were cultured at 37° C. (atmosphere of 5% CO2) in RPMI-1640 medium (Gibco 11875-085) supplemented with 15% FBS and 10 units/mL recombinant human insulin. Treatment with 0.25% Trypsin (Gibco 25200-056) was used for sub-culturing. To establish EBC-1 and Panc03.27 xenografts, cells were harvested and re-suspended in a 1:1 v/v mixture of phosphate buffered saline and Matrigel. A total of 5×10^6 EBC-1 cells and 10×10^6 Panc03.27 cells were injected subcutaneously in the flanks of female nude mice (Charles River, USA) in a volume of 200 μL. Tumor growth was monitored regularly post cell inoculation, and animals were randomized into treatment groups (n=8) with a mean tumor volume of about 200 mm^3.
(§2) For EBC-1 efficacy studies, EphA2-DANAPA-L11C-P25 ADC, 3207-DANAPA-L11C-P25 isotype control ADC, and EphA2-DANAPA CysMab control antibody were all dosed in combination with paclitaxel (LC Laboratories, Woburn, MA, Cat #: P-9600), as indicated in FIG. 1 and FIG. 2. For Panc03.27 efficacy studies, EphA2-DANAPA-L11C-P25 ADC, 3207-DANAPA-L11C-P25 isotype control ADC, and EphA2-DANAPA CysMab control antibody were all dosed in combination with either gemcitabine (Hospira, NDC Code 0409-0185-01) or the MAPK inhibitors (MAPKi) LXH254 and CFF272, as indicated in FIG. 3 and FIG. 4 respectively. […]
(§3) Tumor volume data were analyzed for statistical significance relative to the EphA2-DANAPA-L11C-P25 ADC combination groups. […]
(§4) As a measure of efficacy, % T/C values were calculated according to the following formula: (Δtumor volume in experimental group/Δtumor volume in vehicle control group)*100. Tumor regression was calculated according to the following formula: (Δtumor volume in experimental group/tumor volume in experimental group at start)*100. Δtumor volumes represent mean tumor volumes on the measurement day minus the mean tumor volume at the start of treatment. […]

EBC-1 xenografts [1] = assay: EBC-1 xenograft efficacy, ADC dose reduction alone or with paclitaxel (Table 14, FIG. 2); assay type: in vivo, mice; conditions: Paclitaxel 12.5 mg/kg SD IV alone
Experimental: as §1, §2, §3, §4

EBC-1 xenografts [2] = assay: EBC-1 xenograft efficacy, combination with paclitaxel (Table 13, FIG. 1); assay type: in vivo, mice; conditions: Paclitaxel 12.5 mg/kg SD IV alone; Day 12
Experimental: as §1, §2, §3, §4

sw403 = assay: CellTiter-Glo proliferation assay, sw403; assay type: cell-based; conditions: single agent, 5 days of treatment
Experimental: (§5) EphA2-L11A-P21 antibody drug conjugate (ADC) alone or in combination with Trametinib were tested against cancer cell lines obtained from ATCC (American Type Culture Collection) or from other commercial cell line vendors. EphA2-L11A-P21 ADC was prepared according to any of the conjugation methods described herein. The cells were cultured in media that is optimal for their growth at 5% CO2, 37° C. in a tissue culture incubator. Prior to seeding for the proliferation assay, the cells were split at least 2 days before the assay to ensure optimal growth density. On the day of seeding, cells were lifted off tissue culture flasks using 0.25% trypsin. Cell viability and cell density were determined using a cell counter (Vi-Cell XR Cell Viability Analyzer, Beckman Coulter). […]
(§6) The ADCs were prepared in standard phosphate buffered solution to desired concentrations. […] The ability of the ADCs to inhibit cell proliferation and survival was assessed using the Promega CellTiter-Glo® proliferation assay. Plates were incubated at room temperature for 20 minutes to stabilize luminescent signals prior to reading using a multimode plate reader (Pherastar, BMG). Luminescent counts of untreated cells were taken the day after seeding (Day 0 readings), and after 5 days of treatment (Day 5 readings). The Day 5 readings of the untreated cells were compared to the Day 0 readings. […]

hcc1143 = assay: CellTiter-Glo proliferation assay, hcc1143; assay type: cell-based; conditions: single agent, 5 days of treatment
Experimental: as §5, §6

ebc1 = assay: CellTiter-Glo proliferation assay, ebc1; assay type: cell-based; conditions: single agent, 5 days of treatment
Experimental: as §5, §6

dv90 = assay: CellTiter-Glo proliferation assay, dv90; assay type: cell-based; conditions: single agent, 5 days of treatment
Experimental: as §5, §6

capan2 = assay: CellTiter-Glo proliferation assay, capan2; assay type: cell-based; conditions: single agent, 5 days of treatment
Experimental: as §5, §6

ocum1 = assay: CellTiter-Glo proliferation assay, ocum1; assay type: cell-based; conditions: single agent, 5 days of treatment
Experimental: as §5, §6

panc0327 = assay: CellTiter-Glo proliferation assay, panc0327; assay type: cell-based; conditions: single agent, 5 days of treatment
Experimental: as §5, §6

aspc1 = assay: CellTiter-Glo proliferation assay, aspc1; assay type: cell-based; conditions: single agent, 5 days of treatment
Experimental: as §5, §6

ncin87 = assay: CellTiter-Glo proliferation assay, ncin87; assay type: cell-based; conditions: single agent, 5 days of treatment
Experimental: as §5, §6

jhom2b = assay: CellTiter-Glo proliferation assay, jhom2b; assay type: cell-based; conditions: single agent, 5 days of treatment
Experimental: as §5, §6

skmel31 = assay: CellTiter-Glo proliferation assay, skmel31; assay type: cell-based; conditions: single agent, 5 days of treatment
Experimental: as §5, §6

skhep1 = assay: CellTiter-Glo proliferation assay, skhep1; assay type: cell-based; conditions: single agent, 5 days of treatment
Experimental: as §5, §6

cyno EphA2 ectodomain [3] = molecular target: T1, cyno EphA2 ectodomain (cyno, UniProt Q1KL86 25-537); assay: SPR (Biacore 8k), Fab-capture, 37C, 1:1 model; *low binding signal
T1 construct: extracellular domain
Experimental: (§7) A human Fab capture method was utilized in order to determine kinetics for the antibodies. […] Each channel has two flow cells. The reference flow cell contained only immobilized anti-Fab, whereas the reaction flow cell captured anti-EphA2 IgG through anti-Fab. HBS-EP+ Buffer, pH 7.6 was used as the running buffer. The soluble human, mouse and cyno EphA2 ectodomain flowed over both flow cells on 8 channels. The EphA2 ectodomain concentration started at 50 nM and was serially diluted at one part to one part (1:1) in the running buffer for six concentrations. The analysis chamber was kept at 37° C. Regeneration was performed at the end of each sample washing with the solution of 10 mM Glycine-HCl, pH 2.1 provided in the kit.
(§8) The data were analysed using the Biacore Insight Evaluation Software. Double reference subtraction was completed to generate the final data. The raw data was fitted to a 1:1 binding model, with parameter(s) Rₘₐₓ set to local.

cyno EphA2 ectodomain [4] = molecular target: T1, cyno EphA2 ectodomain; assay: SPR (Biacore 8k), Fab-capture, 37C, 1:1 model;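 note: Anti-EphA2 IgG captured via immobilized anti-Fab, soluble EphA2 ectodomain as analyte at six twofold dilutions from 50 nM, HBS-EP+ pH 7.6 running buffer, double reference subtraction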
Experimental: as §7, §8

T1 sequence (Q1KL86 25-537): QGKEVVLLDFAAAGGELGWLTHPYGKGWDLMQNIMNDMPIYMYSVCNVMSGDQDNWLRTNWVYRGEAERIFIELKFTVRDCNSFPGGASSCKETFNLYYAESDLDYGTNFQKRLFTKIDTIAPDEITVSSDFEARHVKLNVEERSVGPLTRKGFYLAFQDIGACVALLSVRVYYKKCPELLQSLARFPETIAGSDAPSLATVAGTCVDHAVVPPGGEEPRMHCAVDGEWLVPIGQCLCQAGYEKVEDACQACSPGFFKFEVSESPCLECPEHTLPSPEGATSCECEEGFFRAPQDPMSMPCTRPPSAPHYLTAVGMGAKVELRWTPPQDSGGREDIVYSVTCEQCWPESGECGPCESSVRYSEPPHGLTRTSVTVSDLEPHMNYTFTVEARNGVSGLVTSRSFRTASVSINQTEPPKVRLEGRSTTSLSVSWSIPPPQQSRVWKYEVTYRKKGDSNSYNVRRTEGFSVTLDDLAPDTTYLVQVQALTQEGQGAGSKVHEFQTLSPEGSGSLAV

## Nc1ccn([C@@H]2O[C@H](CO)[C@@H](O)C2(F)F)c(=O)n1 [Gemcitabine]
Panc03.27 xenografts; Day 11
  % T/C: 31%
  ΔTumor volume (mm^3 ± SEM): 153 ± 39 mm^3
Panc03.27 xenografts; Day 34
  Complete Responders: 0/8

## CC(=O)O[C@H]1C(=O)[C@@]2(C)[C@H]([C@H](OC(=O)c3ccccc3)[C@]3(O)C[C@H](OC(=O)[C@H](O)[C@@H](NC(=O)c4ccccc4)c4ccccc4)C(C)=C1C3(C)C)[C@]1(OC(C)=O)CO[C@@H]1C[C@@H]2O [Paclitaxel, paclitaxel]
EBC-1 xenografts [1]; Day 14
  % T/C: 71%
  ΔTumor volume (mm^3 ± SEM): 649 ± 97 mm^3
EBC-1 xenografts [1]; Day 16
  Complete Responders: 0/8
EBC-1 xenografts [2]
  % T/C: 46%
  Complete Responders: 0/8
  ΔTumor volume (mm^3 ± SEM): 687 ± 224 mm^3

## Cc1c(Nc2nc3ccccc3s2)nnc2c1CCCN2c1ccc(-c2cnn(C[C@]34C[C@]5(C)C[C@](C)(C3)C[C@@](OCCN3CCCC3)(C5)C4)c2C)c(C(=O)O)n1 [P21, 6-[3-(1,3-benzothiazol-2-ylamino)-4-methyl-6,7-dihydro-5H-pyrido[2,3-c]pyridazin-8-yl]-3-[1-[[3,5-dimethyl-7-(2-pyrrolidin-1-ylethoxy)-1-adamantyl]methyl]-5-methyl-pyrazol-4-yl]pyridine-2-carboxylic acid]
sw403; Homo sapiens, SW-403, 120 h
  GI50: 5.32 nM
sw403
  GI Amax: −64.33
hcc1143; Homo sapiens, 120 h
  GI50: 0.99 nM
hcc1143
  GI Amax: −43.38
ebc1; Homo sapiens, EBC-1, 120 h
  GI50: 0.26 nM
ebc1
  GI Amax: −96.78
dv90; Homo sapiens, DV-90, 120 h
  GI50: 266 nM
dv90
  GI Amax: 16.76
capan2; Homo sapiens, Capan-2, 120 h
  GI50: 4.38 nM
capan2
  GI Amax: −81.72
ocum1; 120 h
  GI50: 0.49 nM
ocum1
  GI Amax: −94.77
panc0327; Homo sapiens, PANC-03-27, 120 h
  GI50: 2.35 nM
panc0327
  GI Amax: −79.2
aspc1; Homo sapiens, 120 h
  GI50: 42.2 nM
aspc1
  GI Amax: 2.18
ncin87; Homo sapiens, NCI-N87, 120 h
  GI50: 0.77 nM
ncin87
  GI Amax: −29.31
jhom2b; 120 h
  GI50: 68.8 nM
jhom2b
  GI Amax: −27.63
skmel31; 120 h
  GI50: 0.05 nM
skmel31
  GI Amax: −56.5
skhep1; Homo sapiens, SK-HEP1, 120 h
  GI50: 0.05 nM
skhep1
  GI Amax: −75.34

B1: anti-EphA2 E152C S375C 1C1 (LC S10T) hIgG1 (WT Heavy Chain) (antibody, V domains shown)
VH: EVQLLESGGGLVQPGGSLRLSCAASGFTFSHYMMAWVRQAPGKGLEWVSRIGPSGGPTHYADSVKGRFTISRDNSKNTLYLQMNSLRAEDTAVYYCAGYDSGYDYVAVAGPAEYFQHWGQGTLVTVSS
VL: DIQMTQSPSTLSASVGDRVTITCRASQSISTWLAWYQQKPGKAPKLLIYKASNLHTGVPSRFSGSGSGTEFSLTISGLQPDDFATYYCQQYNSYSRTFGQGTKVEIKR
notes: also called BB-60-FO04
Cyno EphA2 ectodomain [3]
  Kd: 196 nM

B2: anti-EphA2 IgG antibody 1C1 (antibody, V domains shown)
VH: EVQLLESGGGLVQPGGSLRLSCAASGFTFSHYMMAWVRQAPGKGLEWVSRIGPSGGPTHYADSVKGRFTISRDNSKNTLYLQMNSLRAEDTAVYYCAGYDSGYDYVAVAGPAEYFQHWGQGTLVTVSS
VL: DIQMTQSPSSLSASVGDRVTITCRASQSISTWLAWYQQKPGKAPKLLIYKASNLHTGVPSRFSGSGSGTEFSLTISGLQPDDFATYYCQQYNSYSRTFGQGTKVEIK
notes: Tested as IgG; also called 1C1 WT IgG; iProt 120126
Cyno EphA2 ectodomain [4]
  Kd: 265 nM

B3: LC Germ (1C1) (antibody, V domains shown)
VH: EVQLLESGGGLVQPGGSLRLSCAASGFTFSHYMMAWVRQAPGKGLEWVSRIGPSGGPTHYADSVKGRFTISRDNSKNTLYLQMNSLRAEDTAVYYCAGYDSGYDYVAVAGPAEYFQHWGQGTLVTVSS
VL: DIQMTQSPSSLSASVGDRVTITCRASQSISTWLAWYQQKPGKAPKLLIYKASNLHTGVPSRFSGSGSGTEFSLTISGLQPDDFATYYCQQYNSYSRTFGQGTKVEIK
notes: also called lots BA-71-QS06, HE-38-AZ34
Cyno EphA2 ectodomain [4]
  Kd: 224 nM

B4: 1C1 ADC (antibody, V domains shown)
VH: EVQLLESGGGLVQPGGSLRLSCAASGFTFSHYMMAWVRQAPGKGLEWVSRIGPSGGPTHYADSVKGRFTISRDNSKNTLYLQMNSLRAEDTAVYYCAGYDSGYDYVAVAGPAEYFQHWGQGTLVTVSS
VL: DIQMTQSPSSLSASVGDRVTITCRASQSISTWLAWYQQKPGKAPKLLIYKASNLHTGVPSRFSGSGSGTEFSLTISGLQPDDFATYYCQQYNSYSRTFGQGTKVEIK
modifications: antibody-drug conjugate; linker-payload and conjugation sites not stated for this sample
notes: Antibody-drug conjugate of 1C1; also called XD-01-KE85
Cyno EphA2 ectodomain [4]
  Kd: 220 nM
